From paper PMC6905855, “Agonist-specific voltage-dependent gating of lysosomal two-pore Na^+ channels” (eLife, 2019)
Values joined by “and” are separate entries in the source; they are usually repeats but may differ in a detail not shown here. Equal values may be shown once.

How the values were obtained:
[1] = molecular target: T1, surface-expressing mutant TPC2 channel (TPC2^LL/AA) in HEK293 cells (Homo sapiens, UniProt Q8NHX9, L11A/L12A); assay: Whole-cell recordings of ITPC2-LL/AA; type: cell-based
T1 construct: expressed in transfected cells; host or cells: HEK293
Summary of the method: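 HEK293 cells transiently expressing EGFP-tagged human TPC2 L11A/L12A, a plasma-membrane-targeted mutant, recorded 24–36 h post-transfection. Whole-cell patch clamp with fast perfusion of bath solutions; currents digitized at 10 kHz and filtered at 2 kHz.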

[2] = molecular target: T2, hTPC2 (Homo sapiens, UniProt Q8NHX9); assay: Whole-endolysosome recordings of ITPC2; type: biochemical; details: for Normalized I-TPC2: WT TPC2
T2 construct: expressed in transfected cells; host or cells: Cos1 and HEK293

[3] = tested on: endogenous TPCs in WT HAP1 cells; assay: Whole-endolysosome recordings of endogenous ITPC in WT HAP1 cells; type: biochemical, human; details: for whole-endolysome ITPC current: wt HAP1, LyNa-VA1.1 (50 µM) co-applied with PI(3,5)P2 (0.3 µM)
[4] = molecular target: T3, hTPC1 (Homo sapiens, UniProt Q9ULQ1); assay: Whole-endolysosome recordings of ITPC1; type: biochemical
T3 construct: expressed in transfected cells; host or cells: Cos1
Protocol: It was therefore of interest to explore whether TCAs/LyNa-VAs could also act on TPC1. To investigate this, we used two different voltage paradigms. […] Second, we used a tail current paradigm to measure the amplitude of the peak inward current at −120 mV following prolonged steps to various potentials (Figure 4E).
Figure 4. […] HP = 0 mV. […] Dotted lines in A indicate where the currents were measured. […] Data are presented as Mean ± S.E.M (n = 3 patches). […] (G) Normalized I-V plots of basal voltage-dependent currents in WT TPC1- and TPC1^R540I-transfected cells. […] Figure 4—source data 1. […] Figure 4—figure supplement 1. […] (A) A voltage protocol that elicited ITPC1 tail currents as shown in Figure 4E (from −140 to 100 mV with a ∆V = 20 mV, 1 s with a 10 s inter-step interval). Arrows indicate where tail currents were measured. (B) A voltage protocol that elicited ITPC1 tail currents as shown in C. […] HP = 0 mV. […] (A) Basal whole-endolysosome ITPC1 (left) or ITPC1-R540I (right) was elicited by voltage steps (−140 to +100 mV with ΔV = 20 mV) in the absence of PI(3,5)P2 in TPC1-transfected Cos1 cells ([She et al., 2019]). Tail currents were elicited at −120 mV. (B) The effects of PI(3,5)P2 (0.3 µM) on ITPC1 (left) and ITPC1-R540I (right) step currents. […] A preconditioning voltage (+80 mV, 0.1 s) was applied before voltage steps starting from −140 to 100 mV (0.5 s, ∆V = 20 mV).
All TPC1 and TPC2 mutants were generated with a site-directed mutagenesis kit (Qiagen) using EGFP- human TPC1 and TPC2 as the templates. All constructs were confirmed by DNA sequencing.
Whole-endolysosome recordings were performed on manually isolated enlarged endolysosomes ([Wang et al., 2012]). In brief, a patch pipette was pressed against a cell and quickly pulled away to slice the cell membrane. Enlarged endolysosomes were released into a dish and identified by monitoring EGFP-TPC1/2 or the mCherry-TPC1/2 fluorescence. After formation of a gigaseal between the patch pipette and the enlarged endolysosome, capacitance transients were compensated. Voltage steps of several hundred mVs with millisecond duration were then applied to break into the vacuolar membrane. The whole-endolysosome configuration was verified by the re-appearance of capacitance transients after break-in.
Data were collected using an Axopatch 200A patch clamp amplifier, Digidata 1440, and pClamp 10.2 software (Axon Instruments). Whole-endolysosome currents were digitized at 10 kHz and filtered at 2 kHz. All experiments were conducted at room temperature (21–23°C), and all recordings were analyzed with pClamp 10.2, and Origin 8.0 (OriginLab, Northampton, MA). The permeability to cations (relative to PNa) was estimated based on following equations ([Lewis, 1979]) and Erev measurement under bi-ionic conditions:(1) PX/PNa=γNa/γX{[Na^+]Luminal/[X^+]Cytoplasmic}{exp([…])} (2) PCa/PNa=γNa/γCa{[Na^+]Cytoplasmic/[4[Ca^2+]Luminal}{exp(ErevF/RT)}{1+exp(ErevF/RT)} where R, T, F, Erev, and γ are, respectively, the gas constant, absolute temperature, Faraday constant, reversal potential, and activity coefficient. The liquid junction potentials were measured and corrected as described ([Neher, 1992]).

T2 sequence (Q8NHX9 whole entry): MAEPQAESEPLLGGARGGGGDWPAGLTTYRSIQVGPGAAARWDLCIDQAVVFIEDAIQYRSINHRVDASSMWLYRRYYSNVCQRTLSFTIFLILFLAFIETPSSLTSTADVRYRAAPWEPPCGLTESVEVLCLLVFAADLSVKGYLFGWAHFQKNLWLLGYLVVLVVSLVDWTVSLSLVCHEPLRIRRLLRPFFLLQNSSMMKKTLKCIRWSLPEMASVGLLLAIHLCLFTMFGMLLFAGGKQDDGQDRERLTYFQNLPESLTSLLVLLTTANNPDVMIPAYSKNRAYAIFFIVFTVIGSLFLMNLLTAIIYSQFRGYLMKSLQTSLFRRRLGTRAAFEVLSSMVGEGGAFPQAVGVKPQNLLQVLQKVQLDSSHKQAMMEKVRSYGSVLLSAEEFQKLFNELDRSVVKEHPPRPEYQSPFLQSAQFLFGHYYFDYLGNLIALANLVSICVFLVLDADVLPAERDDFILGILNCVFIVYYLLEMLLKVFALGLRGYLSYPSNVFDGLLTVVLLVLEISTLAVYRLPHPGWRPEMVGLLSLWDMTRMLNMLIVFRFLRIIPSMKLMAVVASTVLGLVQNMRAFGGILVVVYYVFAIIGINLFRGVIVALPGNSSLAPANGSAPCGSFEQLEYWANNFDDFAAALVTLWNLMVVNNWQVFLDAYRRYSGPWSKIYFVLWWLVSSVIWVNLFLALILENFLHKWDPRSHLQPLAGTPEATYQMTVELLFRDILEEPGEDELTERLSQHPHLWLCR
T1 sequence (Q8NHX9 whole entry L11A/L12A): as the sequence (Q8NHX9 whole entry) above, with L11A, L12A counted along it

Structure (SMILES): CN(C)CCCN1c2ccccc2CCc2ccc(Cl)cc21 [LyNa-VA1.1, Clomipramine]
- activation of whole-cell ITPC2-LL/AA (in words) [1]: activated
- current, whole-cell ITPC2-LL/AA [1]: 1835.6 pA and 1904.2 pA and 1632.7 pA and 1290 pA and 1968.1 pA
- EC50 ([1]; whole-cell recordings at −140 mV, TPC2^LL/AA-transfected HEK293 cells, read-out: EC50): 43 ± 2 µM
- combined effect with PI(3,5)P2 on whole-endolysosome ITPC2 (in words) ([2]; PI(3,5)P2 50 nM): synergistic effects
- EC50 ([2]; WT +PI(3,5)P2 (50 nM), whole-endolysosome, Figure 3C): 12 ± 7 µM
- EC50 ([2]; WT -PI(3,5)P2, whole-endolysosome, Figure 3C): 48 ± 16 µM
- Normalized I-TPC2 ([2]; 1 µM + PI(3,5)P2 50nM, individual patches): 0.3375 and 0.1568 and 0.08956
- Normalized I-TPC2 ([2]; 1 µM + PI(3,5)P2 50nM, mean): 0.1946
- Normalized I-TPC2 ([2]; 3 µM + PI(3,5)P2 50nM, individual patches): 0.35 and 0.3063 and 0.1
- Normalized I-TPC2 ([2]; 3 µM + PI(3,5)P2 50nM, mean): 0.2521
- Normalized I-TPC2 ([2]; 10 µM + PI(3,5)P2 50nM, individual patches): 0.5558 and 0.7252 and 0.2889
- Normalized I-TPC2 ([2]; 10 µM + PI(3,5)P2 50nM, mean): 0.5233
- Normalized I-TPC2 ([2]; 10 µM, no PI(3,5)P2, individual patches): 0.08625 and 0.1427 and 0.1845
- Normalized I-TPC2 ([2]; 10 µM, no PI(3,5)P2, mean): 0.1378
- Normalized I-TPC2 ([2]; 20 µM, no PI(3,5)P2, individual patches): 0.2419 and 0.1804 and 0.1168
- Normalized I-TPC2 ([2]; 20 µM, no PI(3,5)P2, mean): 0.1797
- Normalized I-TPC2 ([2]; 30 µM + PI(3,5)P2 50nM, individual patches): 1 (2×) and 0.3222
- Normalized I-TPC2 ([2]; 30 µM + PI(3,5)P2 50nM, mean): 0.7741
- Normalized I-TPC2 ([2]; 50 µM, no PI(3,5)P2, individual patches): 0.8473 and 0.4535 and 0.5893
- Normalized I-TPC2 ([2]; 50 µM, no PI(3,5)P2, mean): 0.63
- Normalized I-TPC2 ([2]; 100 µM + PI(3,5)P2 50nM, individual patches): 0.7417 and 0.7423 and 1
- Normalized I-TPC2 ([2]; 100 µM + PI(3,5)P2 50nM, mean): 0.828
- Normalized I-TPC2 ([2]; 100 µM, no PI(3,5)P2, individual patches): 1 (2×) and 0.99
- Normalized I-TPC2 ([2]; 100 µM, no PI(3,5)P2, mean): 0.9967
- Normalized I-TPC2 ([2]; 200 µM, no PI(3,5)P2, individual patches): 0.7106 and 0.507 and 0.6545
- Normalized I-TPC2 ([2]; 200 µM, no PI(3,5)P2, mean): 0.624
- EC50 ([2]; WT+pip2 (50 nM), MEAN (Fig. 3D)): 14.6 µM
- EC50 ([2]; WT+pip2 (50 nM), individual patches (Fig. 3D)): 27 µM and 12.6 µM and 4.3 µM
- EC50 ([2]; WT-pip2, MEAN (Fig. 3D)): 45.1 µM
- EC50 ([2]; WT-pip2, individual patches (Fig. 3D)): 56 µM and 48.4 µM and 30.8 µM
- ITPC2 ([2]; whole endolysosome recordings with 100 µM of LyNa-VAs at −120 mV): 945 ± 111 pA
- activation of whole-endolysosome ITPC in WT HAP1 cells (in words) [3]: activated whole-endolysome ITPC in WT
- whole-endolysome ITPC current ([3]; individual): 252.1 pA and 207.1 pA and 321.7 pA and 271.3 pA
- whole-endolysome ITPC current ([3]; mean): 263.05 pA
- effect on whole-endolysosome ITPC1 (in words) [4]: profound suppression of outward currents at potentials positive to Erev (~0 mV), and a substantial enhancement of inward currents negative to Erev
- Dose-dependent activation of TPC1 (normalized ITPC1) ([4]; 3 µM, individual patches): 0.0359 and 0.105 and 0
- Dose-dependent activation of TPC1 (normalized ITPC1) ([4]; 3 µM, mean): 0.04696
- Dose-dependent activation of TPC1 (normalized ITPC1) ([4]; 10 µM, individual patches): 0.1722 and 0.1955 and 0.1208
- Dose-dependent activation of TPC1 (normalized ITPC1) ([4]; 10 µM, mean): 0.1629
- Dose-dependent activation of TPC1 (normalized ITPC1) ([4]; 30 µM, individual patches): 0.6041 and 0.3178 and 0.3982
- Dose-dependent activation of TPC1 (normalized ITPC1) ([4]; 30 µM, mean): 0.44
- Dose-dependent activation of TPC1 (normalized ITPC1) ([4]; 100 µM, individual patches): 1 and 0.7031 and 0.8638
- Dose-dependent activation of TPC1 (normalized ITPC1) ([4]; 100 µM, mean): 0.8556
- Dose-dependent activation of TPC1 (normalized ITPC1) ([4]; 300 µM, individual patches): 0.8072 and 1 (2×)
- Dose-dependent activation of TPC1 (normalized ITPC1) ([4]; 300 µM, mean): 0.9357
- τ of ITPC1 step currents ([4]; hTPC1, LyNa-VA1.1 (100 µM), Figure 4A): 155 ± 1 ms
- V1/2 of ITPC1 G-V curve ([4]; hTPC1, LyNa-VA1.1 (100 µM), Figure 4F): -30 ± 5 mV
- τ of ITPC1 tail currents ([4]; hTPC1, tail currents at −120 mV, LyNa-VA1.1 (100 µM), Figure 4E): 203 ± 2 ms
- EC50 ([4]; whole-endolysosome, n = 3 patches, read-out: EC50, activation of TPC1): 27 ± 2 µM
